Source: PMC6264278, “Corydaline Inhibits Multiple Cytochrome P450 and UDP-Glucuronosyltransferase Enzyme Activities in Human Liver Microsomes” (Molecules, 2011)

Target: T1, UGT1A1 (Homo sapiens, UniProt P22309)
T1 construct: using pooled human liver microsomes; tissue BD Gentest Co. H161; host or cells: pooled human liver microsomes
T1 sequence (P22309 26-533): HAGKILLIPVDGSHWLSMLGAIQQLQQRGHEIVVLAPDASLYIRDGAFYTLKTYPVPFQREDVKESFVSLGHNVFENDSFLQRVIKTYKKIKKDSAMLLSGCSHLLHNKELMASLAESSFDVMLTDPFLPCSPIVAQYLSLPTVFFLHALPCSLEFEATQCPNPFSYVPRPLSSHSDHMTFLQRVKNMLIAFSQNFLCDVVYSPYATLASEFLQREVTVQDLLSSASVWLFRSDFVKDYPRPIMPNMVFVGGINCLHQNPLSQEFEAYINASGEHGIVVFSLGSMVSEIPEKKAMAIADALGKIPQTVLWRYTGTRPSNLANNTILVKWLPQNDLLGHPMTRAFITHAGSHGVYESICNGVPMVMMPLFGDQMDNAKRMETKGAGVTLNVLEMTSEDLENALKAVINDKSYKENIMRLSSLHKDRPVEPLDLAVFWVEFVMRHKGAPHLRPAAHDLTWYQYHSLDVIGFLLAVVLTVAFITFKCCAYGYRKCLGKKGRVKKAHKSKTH
Assay: UGT1A1 17β-estradiol 3-glucuronidation inhibition in pooled human liver microsomes
Format: in vitro ADME
Protocol: The inhibitory potencies (IC50 values) of corydaline were also determined with UGT assays in the presence and absence of corydaline (final concentrations of 1–1,000 μM with acetonitrile concentration less than 0.5% v/v) using pooled human liver microsomes. 17β-Estradiol 3-glucuronidation, trifluoperazine glucuronidation, propofol glucuronidation, and azidothymidine glucuronidation activities were determined as probe activities for UGT1A1, UGT1A4, UGT1A9, and UGT2B7, respectively, using LC/MS/MS. Incubation mixtures were prepared in a total volume of 100 μL, as follows: Pooled human liver microsomes (0.2 mg/mL for 17β-estradiol, trifluoperazine and azidothymidine; 0.1 mg/mL for propofol), 2 mM UDPGA, 25 μg/mL alamethicin, 10 mM MgCl2, 50 mM tris buffer (pH 7.4), UGT-isoform specific probe substrate (20 μM 17β-estradiol for UGT1A1, 5 μM trifluoperazine for UGT1A4, 10 μM propofol for UGT1A9, or 100 μM azidothymidine for UGT2B7), and various concentrations of corydaline (1−1000 μM). Reactions were initiated by addition of UDPGA, and incubations were carried out at 37 °C in a shaking water bath for 30 min. […]
Glucuronides produced from UGT isoform-specific substrates were respectively determined by LC/MS/MS. […] Quantification was performed by SRM of the [M+H]^+ ion for trifluoperazine glucuronide and azidothymidine glucuronide or [M−H]^− for 17β-estradiol 3-glucuronide and propofol glucuronide and the related product ion for each metabolite.
Reactions were initiated by addition of NADPH at 37 °C and stopped after 15 min by placement of the incubation tubes on ice and addition of ice-cold methanol (100 μL) containing an internal standard (2.0 μg/mL ^13C6-4-hydroxydiclofenac for diclofenac, 0.5 μg/mL d3-4-hydroxymephenytoin for mephenytoin, or 0.5 μg/mL d9-1-hydroxy-bufuralol for bufuralol). The incubation mixtures were centrifuged at 13,000 × g for 5 min, and aliquots (5 μL) of the supernatants were analyzed by LC/MS/MS. […] Aliquots (5 μL) were analyzed by LC/MS/MS. […]

**Q.** How did the Ki (human liver microsomes, 10-80 μM 17β-estradiol, mixed competitive-noncompetitive equation) turn out when `COc1cc2c(cc1OC)C1C(C)c3ccc(OC)c(OC)c3CN1CC2` (stereo not drawn) [Corydaline, 2,3,9,10-tetramethoxy-13-methyl-5,8,13,13a-tetrahydro-6H-isoquino[3,2-a]isoquinoline] was run?
**A.** 57.6 ± 13 µM

**Q.** And the “α (mix of competitive and noncompetitive mechanisms), UGT1A1 17β-estradiol 3-glucuronidation” value (mixed competitive-noncompetitive equation, nonlinear regression)?
**A.** 0.555

**Q.** What about the IC50 (pooled human liver microsomes (H161), 20 μM 17β-estradiol, mean ± SD, n = 3) of the same compound?
**A.** 137 ± 16.2 µM
